Test results from patent publication US11246961B2, “Engineered scaffolds for vascularized tissue repair” (The Regents of the University of California, priority 2016, dated 2022).
Entries after “also recorded” stand apart in the source; their conditions may differ.

Key:
integrin αvβ3 = molecular target: T1, integrin αvβ3 (Homo sapiens, UniProt P05106+P06756); experiment: flow cytometry ligand-cell binding, αvβ3-K562 cells; conditions: K562 cells highly expressing integrin αvβ3
T1 construct: expressed in transfected cells; host or cells: K562 myeloid leukemia cells (αvβ3-K562), provided by Dr. Yoshikazu Takada
Procedure: FIG. 10 presents flow cytometry data from an assay of binding affinity of LXW7 and GRGD (SEQ ID NO: 1) to different cell types. Tests included EPCs/ECs from different sources, including HECFCs (A), HCAECs (B), HMVECs (C), and THP-1 monocytes (D), Platelets (E), as well as K562 cells engineered to highly express αvβ3 (αvβ3-K562, F), and αIIbβ3 (αIIbβ3-K562, G). Cells were incubated with the LXW7-bio, GRGD-bio (SEQ ID NO: 1), or D-Biotin peptide and subsequently incubated with streptavidin-phycoerythrin. Flow cytometry analysis was performed to determine the binding affinity of the ligands. Samples treated with D-biotin were used as negative controls.
Human coronary artery endothelial cells (HCAECs) were purchased from ATCC. Human cardiac microvascular endothelial cells (HMVECs) were purchased from Lonza. THP-1 monocytes were obtained from Dr. Pamela Lein (University of California, Davis). […]
LXW7-bio (1 μM) was incubated with 3×10^5 HECFCs, HCAECs, HMVECs, αvβ3-K562 and αIIbβ3-K562 cells and THP-1 monocytes and 1×10^8 platelets in binding buffer (HEPES containing 10% FBS) on ice for 30 minutes. […] Samples were analyzed on a BD Fortessa LSR Cell Analyzer and further data analysis and gating were performed using FlowJo software (Treestar, Inc.).

THP-1 monocytes = experiment: attachment assay on ligand treated culture surfaces, THP-1 monocytes; format: cell-based; conditions: 16 hours
Excerpt: Ligands LXW7, LXY30, and LLP2A were synthesized as in U.S. Pat. No. 9,073,974. Biotinylated LXW7 (LXW7-bio) and biotinylated GRGD (GRGD-bio) (SEQ ID NO: 1) were synthesized using established solid phase peptide synthesis protocols (Xiao et al. (2010) Mol Cancer Therapeutics 9:2714). Peptide-bio was designed to have biotin attached to the side chain of Lys, with two hydrophilic linkers between peptide and Lys (biotin). To modify culture surface with ligands, target culture wells in a 24-well plate were coated with 500 μL of 20 μg/mL Avidin (Thermo Fisher Scientific), and incubated for 1 hour at 37° C. Avidin coated wells were rinsed three times with DPBS and were treated with 500 μL molar equivalents (2 μM) of D-biotin (Thermo Fisher Scientific), LXW7-bio, or GRGD-bio (SEQ ID NO: 1). After 1 hour, the wells were washed three times with DPBS and blocked with 1% bovine serum albumin (BSA; Thermo Fisher Scientific) for 1 hour. After the wells were rinsed three times with DPBS, for cell attachment assay, 5×10^4 HCAECs and THP-1 monocytes suspended in the respective maintenance medium were added to the wells and incubated for 10 minutes or 16 hours at 37° C., 5% CO2, respectively. […] Five images were randomly taken from each sample and quantification of images was performed using the Image J software (NIH).

HCAECs = experiment: on-bead whole cell binding assay, HCAECs; format: cell-based, human
Excerpt: Human coronary artery endothelial cells (HCAECs) were purchased from ATCC. Human cardiac microvascular endothelial cells (HMVECs) were purchased from Lonza. THP-1 monocytes were obtained from Dr. Pamela Lein (University of California, Davis). The myeloid leukemia K562 cells that have been transfected with human integrin αvβ3 gene (αvβ3-K562 cells) were provided by Dr. Yoshikazu Takada and the K562 cells transfected with human integrin αIIbβ3 gene (αIIb3-K562 cells) were provided Dr. Jennifer Cochran (Stanford University)
HECFCs, HCAECs, HMVECs and THP-1 monocytes were cultured in their respective growth medium as described in Example 1. For cell bead-binding assay, 6×10^5 HECFCs, HCAECs, HMVECs or THP-1 monocytes in 2 mL of their respective culture medium were added to an ultra-low attachment 35-mm petri dish (Corning Incorporated) followed by resin beads (Lam et al. (1991) Nature 354:82). The dishes were incubated in a shaking incubator at 37° C., 5% CO2 for various time points at 40 rpm. For platelet bead-binding assay, the platelets isolated as described in Example 1 were added to an ultra-low attachment 35-mm petri dish and incubated with the resin beads in the shaking incubator as described for the cell-bead binding assy. Phase contrast images were taken at different time points using an Olympus IX81 microscope.
Three integrin-targeting ligands—LXY30 (α3β1), LLP2A (α4β1) and LXW7 (αvβ3)—were tested for their binding activities to EPCs and ECs. […] LXY30 only bound to ECs, not to EPCs. LLP2A only bound to EPCs, not to ECs. LXW7 bound well to both EPCs and ECs.

T1 sequence (P06756 31-889 limits assumed): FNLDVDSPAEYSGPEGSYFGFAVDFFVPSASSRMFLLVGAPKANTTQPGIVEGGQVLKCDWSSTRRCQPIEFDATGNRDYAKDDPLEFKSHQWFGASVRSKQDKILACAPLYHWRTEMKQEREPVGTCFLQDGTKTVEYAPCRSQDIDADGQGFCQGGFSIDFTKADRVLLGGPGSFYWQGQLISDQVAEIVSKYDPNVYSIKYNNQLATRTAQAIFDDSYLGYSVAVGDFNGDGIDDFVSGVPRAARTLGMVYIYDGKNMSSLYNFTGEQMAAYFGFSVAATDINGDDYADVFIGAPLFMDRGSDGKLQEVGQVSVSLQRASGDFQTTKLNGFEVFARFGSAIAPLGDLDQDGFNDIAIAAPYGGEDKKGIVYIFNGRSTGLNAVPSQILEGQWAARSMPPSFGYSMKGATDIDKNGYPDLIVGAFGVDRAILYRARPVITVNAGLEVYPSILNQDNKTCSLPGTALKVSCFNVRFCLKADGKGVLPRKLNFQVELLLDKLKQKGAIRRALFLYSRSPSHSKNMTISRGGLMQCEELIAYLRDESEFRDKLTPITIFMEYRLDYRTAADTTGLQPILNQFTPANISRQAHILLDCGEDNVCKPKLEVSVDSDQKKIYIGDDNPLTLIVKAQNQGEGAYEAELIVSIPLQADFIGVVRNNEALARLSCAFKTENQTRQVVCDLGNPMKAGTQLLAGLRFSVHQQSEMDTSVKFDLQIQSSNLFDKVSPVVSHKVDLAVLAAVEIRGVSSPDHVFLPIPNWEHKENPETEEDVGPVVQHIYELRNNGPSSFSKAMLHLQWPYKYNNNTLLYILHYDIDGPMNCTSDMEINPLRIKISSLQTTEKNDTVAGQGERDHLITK
T1 sequence (P06756 891-1048 partner limits assumed): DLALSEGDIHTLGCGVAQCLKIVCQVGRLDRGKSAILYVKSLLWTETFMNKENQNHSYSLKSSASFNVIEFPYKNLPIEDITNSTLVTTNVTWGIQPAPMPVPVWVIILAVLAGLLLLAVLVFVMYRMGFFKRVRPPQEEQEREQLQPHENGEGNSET
T1 sequence (P05106 27-788): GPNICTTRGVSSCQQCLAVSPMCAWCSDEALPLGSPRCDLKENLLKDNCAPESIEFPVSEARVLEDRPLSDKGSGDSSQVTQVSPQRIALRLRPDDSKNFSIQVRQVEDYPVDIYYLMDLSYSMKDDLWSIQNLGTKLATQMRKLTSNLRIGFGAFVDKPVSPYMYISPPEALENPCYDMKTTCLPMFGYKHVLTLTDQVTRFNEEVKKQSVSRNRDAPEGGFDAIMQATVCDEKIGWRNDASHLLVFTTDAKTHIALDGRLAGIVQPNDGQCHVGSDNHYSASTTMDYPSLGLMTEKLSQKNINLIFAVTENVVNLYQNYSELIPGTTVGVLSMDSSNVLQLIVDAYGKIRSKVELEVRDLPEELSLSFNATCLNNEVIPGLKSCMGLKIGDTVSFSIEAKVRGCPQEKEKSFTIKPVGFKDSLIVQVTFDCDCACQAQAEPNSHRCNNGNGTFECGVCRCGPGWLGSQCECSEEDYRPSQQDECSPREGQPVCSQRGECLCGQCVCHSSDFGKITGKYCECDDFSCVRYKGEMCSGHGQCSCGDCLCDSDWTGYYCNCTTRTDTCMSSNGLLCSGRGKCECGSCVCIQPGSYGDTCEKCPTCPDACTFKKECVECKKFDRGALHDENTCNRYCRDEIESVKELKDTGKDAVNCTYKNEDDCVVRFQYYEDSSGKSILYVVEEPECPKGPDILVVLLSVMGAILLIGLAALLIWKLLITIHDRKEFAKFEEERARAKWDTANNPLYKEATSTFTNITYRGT

In the case of cGRGDdvc [LXW7], the “binding affinity to αvβ3-K562 cells by flow cytometry” value (integrin αvβ3) is reported as “higher binding affinity than GRGD”, the “THP-1 monocyte attachment on ligand treated surface” value (THP-1 monocytes) is reported as “did not support THP-1 monocyte attachment” and the “attachment of HCAECs to beads displaying LXW7” value (HCAECs; 10 minutes, 30 minutes or 2 hours) is reported as “efficiently supported attachment of EPCs/ECs from different sources; also recorded: efficiently supported EPC/EC attachment”. For the same substance, the “binding of HCAECs to ligand-displaying resin beads” value (HCAECs; 2 hours incubation) was “bound both HECFCs and HCAECs”.
